Source: ChEMBL document CHEMBL1201862, “PubChem BioAssay data set” (2004)
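Protocol summary: plate cells (96-well), add compound at 5 concentrations, incubate 48 h, interpolate endpoints linearly. GI50: concentration for 50% inhibition of growth.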 Calls of active or inactive are those of the source. No stated cut-off is given here; in the data, active = GI50 up to about 1.1 µM and inactive = higher.

Columns and labels:
Test in all cases: growth of human tumour cells (NCI), 48 h
[1] = test system: HT-29
[2] = test system: Hs-578T
[3] = test system: K562
[4] = test system: M14
[5] = test system: MCF7
[6] = test system: MOLT-4
[7] = test system: NCI-H23
[8] = test system: NCI-H522
[9] = test system: NCI/ADR-RES
[10] = test system: OVCAR-8
[11] = test system: PC-3
[12] = test system: SK-MEL-28
[13] = test system: SK-MEL-5
[14] = test system: SK-OV-3
[15] = test system: SN12C
[16] = test system: SNB-19
[17] = test system: SNB-75
[18] = test system: SR
[19] = test system: HCC 2998
[20] = test system: HL-60

Cc1nnc2ccccc2c1O
GI50 [1]: > 100 µM (inactive) | GI50 [2]: > 100 µM (inactive) | GI50 [3]: 2.52 µM (inactive) | GI50 [4]: > 100 µM (inactive) | GI50 [5]: > 100 µM (inactive) | GI50 [6]: 6.34 µM (inactive) | GI50 [7]: > 100 µM (inactive) | GI50 [8]: > 100 µM (inactive) | GI50 [9]: > 100 µM (inactive) | GI50 [10]: > 100 µM (inactive) | GI50 [11]: > 100 µM (inactive) | GI50 [12]: > 100 µM (inactive) | GI50 [13]: > 100 µM (inactive) | GI50 [14]: > 100 µM (inactive) | GI50 [15]: > 100 µM (inactive) | GI50 [16]: > 100 µM (inactive) | GI50 [17]: > 100 µM (inactive) | GI50 [18]: 25.9 µM (inactive)

C/C=C1/CC(C(=O)OC)N(C(=O)OCc2ccccc2)C1=S (stereo not drawn)
GI50 [19]: 7.73 µM (inactive) | GI50 [1]: > 100 µM (inactive) | GI50 [2]: > 100 µM (inactive) | GI50 [3]: > 100 µM (inactive) | GI50 [4]: > 100 µM (inactive) | GI50 [5]: > 100 µM (inactive) | GI50 [6]: > 100 µM (inactive) | GI50 [7]: > 100 µM (inactive) | GI50 [8]: > 100 µM (inactive) | GI50 [9]: > 100 µM (inactive) | GI50 [10]: > 100 µM (inactive) | GI50 [11]: > 100 µM (inactive) | GI50 [12]: > 100 µM (inactive) | GI50 [13]: > 100 µM (inactive) | GI50 [14]: > 100 µM (inactive) | GI50 [16]: > 100 µM (inactive) | GI50 [17]: > 100 µM (inactive)

O=C(CN1CCOCC1)c1ccc2c(c1)oc(=O)n2CCN1CCCC1
GI50 [20]: > 100 µM (inactive) | GI50 [1]: > 100 µM (inactive) | GI50 [2]: > 100 µM (inactive) | GI50 [3]: > 100 µM (inactive) | GI50 [4]: > 100 µM (inactive) | GI50 [5]: > 100 µM (inactive) | GI50 [6]: > 100 µM (inactive) | GI50 [7]: > 100 µM (inactive) | GI50 [9]: > 100 µM (inactive) | GI50 [10]: > 100 µM (inactive) | GI50 [11]: > 100 µM (inactive) | GI50 [12]: > 100 µM (inactive) | GI50 [13]: > 100 µM (inactive) | GI50 [14]: > 100 µM (inactive) | GI50 [15]: > 100 µM (inactive) | GI50 [16]: > 100 µM (inactive) | GI50 [17]: > 100 µM (inactive) | GI50 [18]: > 100 µM (inactive)

COc1ccc(C2SC(=N)Nc3c2c(C)nn3C(=O)c2ccc(Cl)cc2)cc1 (stereo not drawn)
GI50 [19]: > 10 µM (inactive) | GI50 [20]: > 10 µM (inactive) | GI50 [1]: > 10 µM (inactive) | GI50 [2]: > 10 µM (inactive) | GI50 [3]: > 10 µM (inactive) | GI50 [4]: > 10 µM (inactive) | GI50 [5]: > 10 µM (inactive) | GI50 [6]: > 10 µM (inactive) | GI50 [7]: > 10 µM (inactive) | GI50 [8]: > 10 µM (inactive) | GI50 [9]: > 10 µM (inactive) | GI50 [10]: > 10 µM (inactive) | GI50 [11]: > 10 µM (inactive) | GI50 [12]: > 10 µM (inactive) | GI50 [13]: > 10 µM (inactive) | GI50 [14]: > 10 µM (inactive) | GI50 [15]: > 10 µM (inactive) | GI50 [16]: > 10 µM (inactive) | GI50 [17]: > 10 µM (inactive)

O=C(NCc1ccc(Cl)cc1)c1cc2sccc2nc1C(F)(F)F
GI50 [1]: > 100 µM (inactive) | GI50 [2]: 19.8 µM (inactive) | GI50 [3]: > 100 µM (inactive) | GI50 [4]: > 100 µM (inactive) | GI50 [5]: 61 µM (inactive) | GI50 [6]: > 100 µM (inactive) | GI50 [7]: 45.5 µM (inactive) | GI50 [8]: 29.7 µM (inactive) | GI50 [9]: 39.1 µM (inactive) | GI50 [10]: 26.4 µM (inactive) | GI50 [11]: 48 µM (inactive) | GI50 [12]: 55.7 µM (inactive) | GI50 [13]: 49.7 µM (inactive) | GI50 [14]: 34 µM (inactive) | GI50 [15]: 44.8 µM (inactive) | GI50 [16]: 22.5 µM (inactive) | GI50 [18]: 39.9 µM (inactive)

Cc1nc2c(cc1OCc1ccccc1)C(=O)C1=C(C2=O)C2OC(=O)CC2OC1(C)C (stereo not drawn)
GI50 [19]: 0.579 µM (active) | GI50 [20]: 0.0697 µM (active) | GI50 [1]: 0.375 µM (active) | GI50 [2]: 0.169 µM (active) | GI50 [4]: 0.536 µM (active) | GI50 [5]: 0.173 µM (active) | GI50 [6]: 0.358 µM (active) | GI50 [7]: 0.944 µM (active) | GI50 [8]: 0.149 µM (active) | GI50 [9]: 3.14 µM (inactive) | GI50 [10]: 2.72 µM (inactive) | GI50 [11]: 0.56 µM (active) | GI50 [12]: 0.33 µM (active) | GI50 [13]: 1.18 µM (inactive) | GI50 [15]: 0.182 µM (active) | GI50 [16]: 2.49 µM (inactive) | GI50 [17]: 1.66 µM (inactive)

CCOC(=O)c1nc2ccc(C(F)(F)F)cc2nc1NCc1ccc(OC)cc1
GI50 [1]: 55.8 µM (inactive) | GI50 [2]: 99.5 µM (inactive) | GI50 [3]: 39.5 µM (inactive) | GI50 [4]: > 100 µM (inactive) | GI50 [5]: 43.2 µM (inactive) | GI50 [6]: 31.3 µM (inactive) | GI50 [7]: 84.1 µM (inactive) | GI50 [8]: 11.9 µM (inactive) | GI50 [9]: 68.4 µM (inactive) | GI50 [10]: > 100 µM (inactive) | GI50 [11]: 56.6 µM (inactive) | GI50 [13]: 58.2 µM (inactive) | GI50 [14]: > 100 µM (inactive) | GI50 [16]: > 100 µM (inactive) | GI50 [17]: 85.9 µM (inactive) | GI50 [18]: 28.2 µM (inactive)

CCOC(=O)CCC(C(=O)OCC)n1nnc2cc(Nc3c(C)[n+]([O-])c4cc(Cl)ccc4[n+]3[O-])ccc21 (stereo not drawn)
GI50 [20]: 41.3 µM (inactive) | GI50 [1]: 76 µM (inactive) | GI50 [2]: > 100 µM (inactive) | GI50 [3]: 59.2 µM (inactive) | GI50 [4]: 44.6 µM (inactive) | GI50 [5]: 28.2 µM (inactive) | GI50 [6]: 49.1 µM (inactive) | GI50 [7]: 60.5 µM (inactive) | GI50 [8]: > 100 µM (inactive) | GI50 [9]: 35.1 µM (inactive) | GI50 [10]: > 100 µM (inactive) | GI50 [11]: > 100 µM (inactive) | GI50 [13]: 49.8 µM (inactive) | GI50 [14]: > 100 µM (inactive) | GI50 [15]: 96.6 µM (inactive) | GI50 [16]: > 100 µM (inactive) | GI50 [17]: 89.3 µM (inactive)

N#CC(=N)c1ncn(CCO)c1NC(=O)C(F)(F)F
GI50 [19]: > 100 µM (inactive) | GI50 [20]: > 100 µM (inactive) | GI50 [1]: > 100 µM (inactive) | GI50 [2]: > 100 µM (inactive) | GI50 [3]: > 100 µM (inactive) | GI50 [4]: > 100 µM (inactive) | GI50 [7]: > 100 µM (inactive) | GI50 [8]: > 100 µM (inactive) | GI50 [9]: > 100 µM (inactive) | GI50 [10]: > 100 µM (inactive) | GI50 [11]: > 100 µM (inactive) | GI50 [12]: > 100 µM (inactive) | GI50 [13]: > 100 µM (inactive) | GI50 [14]: > 100 µM (inactive) | GI50 [15]: > 100 µM (inactive) | GI50 [16]: > 100 µM (inactive) | GI50 [17]: > 100 µM (inactive) | GI50 [18]: > 100 µM (inactive)

C=C[C@@]1(C)CC[C@@H]2[C@@]3(C1)O[C@H]3CC1[C@](C)(C(=O)OC)CCC[C@@]12C (stereo partly drawn)
GI50 [19]: 17.3 µM (inactive) | GI50 [1]: 14.1 µM (inactive) | GI50 [2]: 20 µM (inactive) | GI50 [3]: 32.8 µM (inactive) | GI50 [4]: 19.6 µM (inactive) | GI50 [5]: 15.6 µM (inactive) | GI50 [6]: 20 µM (inactive) | GI50 [7]: 24.4 µM (inactive) | GI50 [8]: 16.9 µM (inactive) | GI50 [9]: 20 µM (inactive) | GI50 [10]: 21.3 µM (inactive) | GI50 [11]: 30.4 µM (inactive) | GI50 [12]: 21.1 µM (inactive) | GI50 [13]: 17.8 µM (inactive) | GI50 [14]: 27.4 µM (inactive) | GI50 [16]: 16.3 µM (inactive) | GI50 [17]: 37.8 µM (inactive)

CC(=O)O[C@H]1C[C@]2(O)[C@@H]3CC[C@@H]4C[C@@H](O)CC[C@]4(C)[C@H]3CC[C@]2(C)[C@H]1C1=CC(=O)OC1
GI50 [19]: 0.161 µM (active) | GI50 [20]: 0.0382 µM (active) | GI50 [1]: 0.0986 µM (active) | GI50 [2]: 0.0675 µM (active) | GI50 [3]: 0.103 µM (active) | GI50 [4]: 0.172 µM (active) | GI50 [6]: 0.0201 µM (active) | GI50 [7]: 0.0366 µM (active) | GI50 [8]: 0.0251 µM (active) | GI50 [9]: 0.074 µM (active) | GI50 [10]: 0.0923 µM (active) | GI50 [11]: 0.0662 µM (active) | GI50 [12]: 0.324 µM (active) | GI50 [13]: 0.0318 µM (active) | GI50 [14]: 0.214 µM (active) | GI50 [15]: 0.037 µM (active) | GI50 [16]: 0.381 µM (active) | GI50 [17]: 0.153 µM (active) | GI50 [18]: 0.0315 µM (active)
